Measurements as given in ChEMBL document CHEMBL1201862, “PubChem BioAssay data set” (2004).
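Results reflect a 48-hour exposure of cells in 96-well plates to compound at five concentrations. Abbreviation: GI50, concentration required for 50% inhibition of growth.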 The source made the active and inactive calls. Rule as the data show it: active = GI50 up to about 1.1 µM and inactive = higher.

Experiments:
Assay in all cases: DTP human tumour cell line panel, 48 h
SK-OV-3 = tested on: SK-OV-3
NCI-H226 = tested on: NCI-H226
HOP-92 = tested on: HOP-92
SK-MEL-2 = tested on: SK-MEL-2
RPMI-8226 = tested on: RPMI-8226
COLO 205 = tested on: COLO 205
NCI-H23 = tested on: NCI-H23
IGROV-1 = tested on: IGROV-1
A549 = tested on: A549
OVCAR-8 = tested on: OVCAR-8
SK-MEL-5 = tested on: SK-MEL-5
LOX IMVI = tested on: LOX IMVI
TK-10 = tested on: TK-10
OVCAR-5 = tested on: OVCAR-5
RXF 393 = tested on: RXF 393
SR = tested on: SR

Measured: GI50

c1ccc(-c2csc3ncn4cnnc4c23)cc1
inactive: SK-OV-3 > 100 µM | NCI-H226 54.1 µM | HOP-92 24.6 µM | SK-MEL-2 24.8 µM | RPMI-8226 59.6 µM | COLO 205 > 100 µM | NCI-H23 90.2 µM | IGROV-1 77.8 µM | A549 > 100 µM | OVCAR-8 > 100 µM | SK-MEL-5 58.1 µM | LOX IMVI 55.8 µM | TK-10 84.3 µM

CCCCCCCCCC(=O)CC(=O)c1c(O)cccc1O
inactive: SK-OV-3 20.5 µM | OVCAR-5 22.9 µM | NCI-H226 25.9 µM | SK-MEL-2 30.6 µM | RPMI-8226 25.6 µM | COLO 205 18.7 µM | NCI-H23 30.5 µM | RXF 393 27 µM | IGROV-1 32.3 µM | A549 28.8 µM | OVCAR-8 38 µM | LOX IMVI 21.3 µM | TK-10 41.8 µM

COc1nc2c(nc(N)n2C2OC(CO)C(O)C(O)C2O)c(=O)n1C (stereo unspecified)
inactive: SK-OV-3 > 100 µM | SR > 100 µM | NCI-H226 > 100 µM | HOP-92 > 100 µM | COLO 205 > 100 µM | NCI-H23 > 100 µM | RXF 393 > 100 µM | IGROV-1 > 100 µM | A549 > 100 µM | OVCAR-8 > 100 µM | SK-MEL-5 > 100 µM | LOX IMVI > 100 µM | TK-10 > 100 µM

O=C(/C=C/c1ccc(OCC(=O)N2CCN(c3ccccc3)CC2)cc1)c1ccccc1
inactive: SK-OV-3 38.1 µM | OVCAR-5 48.8 µM | SR 2.72 µM | NCI-H226 16.9 µM | HOP-92 29 µM | SK-MEL-2 > 26.5 µM | RPMI-8226 3.75 µM | COLO 205 26.1 µM | NCI-H23 17.8 µM | RXF 393 7.85 µM | IGROV-1 32.9 µM | A549 44.4 µM | OVCAR-8 10.9 µM | SK-MEL-5 7.57 µM | LOX IMVI 3.68 µM | TK-10 45.7 µM

Cc1cccc(NC(=O)CSc2nnc(-c3ccc(/N=C\c4ccc(Cl)cc4)cc3)o2)c1
inactive: SK-OV-3 > 100 µM | SR > 100 µM | NCI-H226 > 100 µM | SK-MEL-2 > 100 µM | RPMI-8226 > 100 µM | COLO 205 > 100 µM | NCI-H23 > 100 µM | RXF 393 60.4 µM | A549 > 100 µM | OVCAR-8 > 100 µM | SK-MEL-5 > 100 µM | LOX IMVI 72.9 µM | TK-10 > 100 µM

CNC(=S)/N=C(\N)N(C)C
inactive: SK-OV-3 > 100 µM | SR > 100 µM | NCI-H226 > 100 µM | HOP-92 > 100 µM | RPMI-8226 > 100 µM | COLO 205 > 100 µM | NCI-H23 > 10 µM | RXF 393 > 100 µM | IGROV-1 > 100 µM | A549 > 100 µM | OVCAR-8 > 100 µM | SK-MEL-5 > 100 µM | LOX IMVI > 100 µM | TK-10 > 100 µM

CCCCCCCCCCCCOC(=S)NCCCC
inactive: SK-OV-3 18.7 µM | OVCAR-5 19.8 µM | SR 19 µM | NCI-H226 20.1 µM | HOP-92 20 µM | SK-MEL-2 18.7 µM | RPMI-8226 15.7 µM | NCI-H23 23 µM | RXF 393 23.8 µM | IGROV-1 25.6 µM | OVCAR-8 18.7 µM | LOX IMVI 17 µM | TK-10 35.3 µM

CC(C)C(=O)N1Cc2cc(Cl)cc(Cl)c2OC(=O)c2ccccc21
inactive: SK-OV-3 25.9 µM | OVCAR-5 27 µM | NCI-H226 23.1 µM | HOP-92 24.7 µM | SK-MEL-2 21.5 µM | RPMI-8226 25.5 µM | COLO 205 59.3 µM | NCI-H23 66.2 µM | IGROV-1 29.5 µM | A549 31 µM | OVCAR-8 33.7 µM | SK-MEL-5 19.2 µM | LOX IMVI 23.3 µM | TK-10 29.7 µM

CCOC(=O)[C@@]1(C)C=C2O[C@@H]3OC4(CCCCC4)O[C@@H]3C2=C2C(O)=CC=C(O)[C@]21C(=O)OC
inactive: SK-OV-3 > 68.1 µM | OVCAR-5 > 68.1 µM | NCI-H226 > 68.1 µM | HOP-92 13.4 µM | SK-MEL-2 > 68.1 µM | RPMI-8226 38.6 µM | COLO 205 > 68.1 µM | NCI-H23 > 68.1 µM | IGROV-1 > 68.1 µM | A549 > 68.1 µM | OVCAR-8 > 68.1 µM | SK-MEL-5 > 68.1 µM | LOX IMVI > 68.1 µM | TK-10 > 68.1 µM

CCOC(=O)NC(=O)c1cn(CCCCCCCCCCC(=O)NCCCN2CCN(CCCNC(=O)CCCCCCCCCCn3cc(C(=O)NC(=O)OCC)c(=O)[nH]c3=O)CC2)c(=O)[nH]c1=O
inactive: SK-OV-3 > 100 µM | OVCAR-5 > 100 µM | SR > 100 µM | HOP-92 > 100 µM | SK-MEL-2 > 100 µM | COLO 205 > 100 µM | NCI-H23 > 100 µM | A549 > 100 µM | OVCAR-8 > 100 µM | LOX IMVI > 100 µM | TK-10 > 100 µM

CC1=C(/C=C/C(C)=C/C2CC(N(C)C)=CC(=O)O2)C(C)(C)CCC1 (stereo unspecified)
inactive: SK-OV-3 16.4 µM | OVCAR-5 11.6 µM | SR 8.09 µM | NCI-H226 11.9 µM | HOP-92 16.4 µM | SK-MEL-2 13.2 µM | RPMI-8226 1.37 µM | COLO 205 14.1 µM | NCI-H23 13.5 µM | RXF 393 14.9 µM | IGROV-1 14.8 µM | A549 9.75 µM | OVCAR-8 15.5 µM | SK-MEL-5 5.45 µM | LOX IMVI 15.2 µM | TK-10 14.1 µM

Nc1nc(-c2ccc(Cl)c([N+](=O)[O-])c2)cs1
inactive: SK-OV-3 > 100 µM | OVCAR-5 > 100 µM | HOP-92 16.2 µM | SK-MEL-2 > 100 µM | RPMI-8226 > 100 µM | COLO 205 > 100 µM | NCI-H23 73.5 µM | RXF 393 29.3 µM | IGROV-1 > 100 µM | A549 > 100 µM | OVCAR-8 > 100 µM | SK-MEL-5 > 100 µM | LOX IMVI > 100 µM | TK-10 > 100 µM

CCOC(=O)C(C)c1cc(C2(C)OCCO2)c(C)o1 (stereo unspecified)
inactive: SK-OV-3 > 100 µM | OVCAR-5 > 100 µM | HOP-92 8.63 µM | SK-MEL-2 > 100 µM | RPMI-8226 > 100 µM | COLO 205 > 100 µM | NCI-H23 > 100 µM | RXF 393 > 100 µM | IGROV-1 > 100 µM | A549 > 100 µM | OVCAR-8 > 100 µM | SK-MEL-5 > 100 µM | LOX IMVI > 100 µM | TK-10 > 100 µM

C/C(=N\NC(N)=S)c1ccc(/C(C)=N/NC(N)=S)cc1
inactive: SK-OV-3 > 100 µM | OVCAR-5 > 100 µM | SR > 100 µM | NCI-H226 > 100 µM | HOP-92 > 100 µM | RPMI-8226 > 100 µM | COLO 205 > 100 µM | NCI-H23 > 100 µM | RXF 393 > 100 µM | IGROV-1 > 100 µM | A549 > 100 µM | OVCAR-8 > 100 µM | SK-MEL-5 > 100 µM | LOX IMVI > 100 µM | TK-10 > 100 µM

COC(=O)C(CCC1(C)OCCO1)=[N+]=[N-]
inactive: SK-OV-3 > 100 µM | OVCAR-5 > 100 µM | SR > 100 µM | NCI-H226 > 100 µM | SK-MEL-2 > 100 µM | COLO 205 > 100 µM | NCI-H23 > 100 µM | RXF 393 > 100 µM | IGROV-1 > 100 µM | A549 > 100 µM | OVCAR-8 > 100 µM | SK-MEL-5 > 100 µM | LOX IMVI > 100 µM | TK-10 > 100 µM

CCOC(=O)N(c1ccccc1)N(CC)C(=O)/C(C)=N/Nc1ccc([N+](=O)[O-])cc1
inactive: SK-OV-3 19.8 µM | SR 21.7 µM | NCI-H226 22 µM | HOP-92 15.5 µM | SK-MEL-2 16 µM | RPMI-8226 16.8 µM | COLO 205 17.2 µM | NCI-H23 18 µM | RXF 393 13 µM | IGROV-1 17.3 µM | A549 16.7 µM | OVCAR-8 17.4 µM

Nc1ccc(/N=N/c2ccc(-c3ccc(/N=N/c4c(S(=O)(=O)O)cc5cc(S(=O)(=O)O)c(/N=N/c6ccc([N+](=O)[O-])cc6)c(N)c5c4O)cc3)cc2)c2cc(S(=O)(=O)O)ccc12
inactive: SK-OV-3 > 100 µM | OVCAR-5 > 100 µM | SR > 100 µM | NCI-H226 > 100 µM | HOP-92 97.7 µM | SK-MEL-2 > 100 µM | RPMI-8226 > 100 µM | COLO 205 > 100 µM | NCI-H23 > 100 µM | RXF 393 > 100 µM | IGROV-1 > 100 µM | A549 > 100 µM | OVCAR-8 > 100 µM | SK-MEL-5 > 100 µM | LOX IMVI > 100 µM | TK-10 > 100 µM

c1cc(C2O[C@H]3CCCN3[C@@H]2c2ccncc2)ccn1 (stereo partly specified)
inactive: SK-OV-3 > 100 µM | OVCAR-5 > 100 µM | NCI-H226 > 100 µM | SK-MEL-2 > 100 µM | RPMI-8226 > 100 µM | COLO 205 > 100 µM | NCI-H23 > 100 µM | RXF 393 > 100 µM | IGROV-1 > 100 µM | A549 > 100 µM | OVCAR-8 > 100 µM | SK-MEL-5 > 100 µM | LOX IMVI > 100 µM | TK-10 > 100 µM

COc1ccc(C(O)c2cc(OC)c(OC)c(OC)c2)cc1 (stereo unspecified)
inactive: OVCAR-5 > 100 µM | NCI-H226 32.4 µM | HOP-92 27.3 µM | RPMI-8226 19.9 µM | COLO 205 8.73 µM | RXF 393 10.1 µM | IGROV-1 18 µM | A549 17.1 µM | OVCAR-8 30.3 µM | SK-MEL-5 17 µM | LOX IMVI 17.2 µM | TK-10 31.3 µM
